Measured values reported in ChEMBL document CHEMBL4715710, “Discovery, synthesis, and structure-activity relationships of 20S-dammar-24-en-2α,3β,12β,20-tetrol (GP) derivatives as a new class of AMPKα2β1γ1 activators” (Bioorg Med Chem, 2016).
The source made the active and inactive calls. No cut-off for these calls is given here.

Legend:
[1] = Inhibition of gluconeogenesis in C57/BL6 mouse primary hepatocytes at 20 uM measured after 6 hrs relative to control; assay type: functional; conditions: C57/BL6, Hepatocyte
L6 = assay: Effect on mitochondrial membrane potential in rat L6 cells at 5 to 40 uM measured after 1 hr by JC-1 staining based assay; assay type: functional, cell-based; conditions: dose 5-40 µM
Hepatocyte = assay: Cytotoxicity against C57/BL6 mouse primary hepatocytes at 5 to 40 uM measured after 24 hrs by sulforhodamine B assay; assay type: cell-based; conditions: dose 5-40 µM
Homo sapiens = organism: Homo sapiens; assay: Activation of human recombinant AMPK alpha2/beta1/gamma1 using substrate-1 peptide as substrate incubated for 45 mins in presence of ATP by HTRF assay relative to negative control
[2] = Activation of human recombinant AMPK alpha2/beta1/gamma1 using substrate-1 peptide as substrate incubated for 45 mins in presence of ATP by HTRF assay
HepG2 [3] = assay: Activation of AMPK in human HepG2 cells assessed as induction of ACC phosphorylation at Ser79 residue measured after 1 hr by Western blot analysis; assay type: cell-based; conditions: filed as activator, dose 2.5-20 µM
HepG2 [4] = assay: Activation of AMPK in human HepG2 cells assessed as induction of AMPK phosphorylation of Thr-172 residue at alpha subunit measured after 1 hr by Western blot analysis; assay type: cell-based; conditions: filed as activator, dose 2.5-20 µM
HepG2 [5] = assay: Activation of AMPK in human HepG2 cells assessed as induction of AMPK phosphorylation at alpha subunit at 2.5 to 20 uM measured after 1 hr by Western blot analysis; assay type: cell-based; conditions: filed as activator, dose 2.5-20 µM
[6] = Inhibition of gluconeogenesis in C57/BL6 mouse primary hepatocytes at 10 to 20 uM measured after 6 hrs relative to control; assay type: functional, Hepatocyte; conditions: dose 10-20 µM
HepG2 [7] = assay: Activation of AMPK in human HepG2 cells assessed as induction of ACC phosphorylation at Ser79 residue at 2.5 to 20 uM measured after 1 hr by Western blot analysis; assay type: cell-based; conditions: filed as activator, dose 2.5-20 µM
HepG2 [8] = assay: Activation of AMPK in human HepG2 cells assessed as induction of ACC phosphorylation at Ser79 residue at 20 uM measured after 1 hr by Western blot analysis; assay type: cell-based; conditions: filed as activator
Syrian golden hamster [9] = assay: Antidyslipidemic activity against HFHC diet-induced hyperlipidemia in Golden Syrian hamster model assessed as decrease in low density lipoprotein cholesterol at 100 mg/kg, po bid via gavage administered for 2 weeks and measured after 28 days by automated chemistry analyzer; assay type: functional, organism-based; conditions: Mesocricetus auratus
Syrian golden hamster [10] = assay: Antidyslipidemic activity against HFHC diet-induced hyperlipidemia in Golden Syrian hamster model assessed as decrease in ratio of LDL-C to HDL-C at 100 mg/kg, po bid via gavage administered for 2 weeks and measured after 28 days by automated chemistry analyzer; assay type: functional, organism-based; conditions: Mesocricetus auratus
HepG2 [11] = assay: Activation of AMPK in human HepG2 cells assessed as induction of AMPK phosphorylation at alpha subunit at 20 uM measured after 1 hr by Western blot analysis; assay type: cell-based; conditions: filed as activator
Syrian golden hamster [12] = assay: Antidyslipidemic activity against HFHC diet-induced hyperlipidemia in Golden Syrian hamster model assessed as decrease in total cholesterol level at 100 mg/kg, po bid via gavage administered for 2 weeks and measured after 28 days by automated chemistry analyzer; assay type: functional, organism-based; conditions: Mesocricetus auratus
Syrian golden hamster [13] = assay: Antidyslipidemic activity against HFHC diet-induced hyperlipidemia in Golden Syrian hamster model assessed as decrease in high density lipoprotein cholesterol at 100 mg/kg, po bid via gavage administered for 2 weeks and measured after 28 days by automated chemistry analyzer; assay type: functional, organism-based; conditions: Mesocricetus auratus
Syrian golden hamster [14] = assay: Antidyslipidemic activity against HFHC diet-induced hyperlipidemia in Golden Syrian hamster model assessed as decrease in triglycerides at 100 mg/kg, po bid via gavage administered for 2 weeks and measured after 28 days by automated chemistry analyzer; assay type: functional, organism-based; conditions: Mesocricetus auratus

Row | Compound | fold change (FC) (Homo sapiens; filed as activator) | EC50 ([2]; read-out: EC50) | further results
1 | CC1(C)[C@@H](O)[C@H](O)C[C@]2(C)[C@H]3C[C@@H](O)[C@@H]4[C@@H]([C@@](C)(O)CCCNCc5ccc(F)cc5)CC[C@@]4(C)[C@]3(C)CC[C@@H]12 | 3.2 | 0.3 µM | inhibition at 20 µM [1]: 80%; Activity (L6): Active; Activity (Hepatocyte): Non-Toxic; Activity (HepG2 [3]): Dose-dependent effect; Activity (HepG2 [4]): Dose-dependent effect
2 | CC1(C)[C@@H](O)[C@H](O)C[C@]2(C)[C@H]3C[C@@H](O)[C@@H]4[C@@H]([C@@](C)(O)CCCNCCCc5ccccc5)CC[C@@]4(C)[C@]3(C)CC[C@@H]12 | 2.7 | 0.8 µM | inhibition at 20 µM [1]: 80%; Activity (L6): Active; Activity (Hepatocyte): Non-Toxic; Activity (HepG2 [3]): Dose-dependent effect; Activity (HepG2 [4]): Dose-dependent effect
3 | CC1(C)[C@@H](O)[C@H](O)C[C@]2(C)[C@H]3C[C@@H](O)[C@@H]4[C@@H]([C@@](C)(O)CCCNCCc5ccccc5)CC[C@@]4(C)[C@]3(C)CC[C@@H]12 | 2 | 1.2 µM | 
4 | COc1ccc(NCCC[C@](C)(O)[C@H]2CC[C@]3(C)[C@@H]2[C@H](O)C[C@@H]2[C@@]4(C)C[C@@H](O)[C@H](O)C(C)(C)[C@@H]4CC[C@]23C)cc1 | 2.9 | 3.8 µM | 
5 | CC(C)(O)[C@H]1CC[C@](C)([C@H]2CC[C@]3(C)[C@@H]2[C@H](O)C[C@@H]2[C@@]4(C)C[C@@H](O)[C@H](O)C(C)(C)[C@@H]4CC[C@]23C)O1 | 3.9 | 5.5 µM | 
6 | COc1ccc(CNCCC[C@](C)(O)[C@H]2CC[C@]3(C)[C@@H]2[C@H](O)C[C@@H]2[C@@]4(C)C[C@@H](O)[C@H](O)C(C)(C)[C@@H]4CC[C@]23C)cc1 | 2.7 | 1 µM | 
7 | CC1(C)[C@@H](O)[C@H](O)C[C@]2(C)[C@H]3C[C@@H](O)[C@@H]4[C@@H]([C@@](C)(O)CCCNCc5ccncc5)CC[C@@]4(C)[C@]3(C)CC[C@@H]12 | 4.1 | 1.2 µM | 
8 | CC(C)(C)NCCC[C@](C)(O)[C@H]1CC[C@]2(C)[C@@H]1[C@H](O)C[C@@H]1[C@@]3(C)C[C@@H](O)[C@H](O)C(C)(C)[C@@H]3CC[C@]12C | 2.1 | 4.9 µM | 
9 | CC1(C)[C@@H](O)[C@H](O)C[C@]2(C)[C@H]3C[C@@H](O)[C@@H]4[C@@H]([C@@](C)(O)CCCNCc5ccccn5)CC[C@@]4(C)[C@]3(C)CC[C@@H]12 | 3 | 0.8 µM | Activity (HepG2 [5]): Active; inhibition (INH) [6]: 20%; Activity (L6): Active; Activity (HepG2 [7]): Active
10 | CC(C)NCCC[C@](C)(O)[C@H]1CC[C@]2(C)[C@@H]1[C@H](O)C[C@@H]1[C@@]3(C)C[C@@H](O)[C@H](O)C(C)(C)[C@@H]3CC[C@]12C | 2 | 1.2 µM | 
11 | CC(C)CCC[C@](C)(O)[C@H]1CC[C@]2(C)[C@@H]1[C@H](O)C[C@@H]1[C@@]3(C)C[C@@H](O)[C@H](O)C(C)(C)[C@@H]3CC[C@]12C |  |  | fold change (FC) (Homo sapiens): < 1.5; EC50 [2]: Not Active
12 | CC1(C)[C@@H](O)[C@H](O)C[C@]2(C)[C@H]3C[C@@H](O)[C@@H]4[C@@H]([C@@](C)(O)CCCNCc5ccccc5)CC[C@@]4(C)[C@]3(C)CC[C@@H]12 | 3.4 | 5.1 µM | 
13 | CCNCCC[C@](C)(O)[C@H]1CC[C@]2(C)[C@@H]1[C@H](O)C[C@@H]1[C@@]3(C)C[C@@H](O)[C@H](O)C(C)(C)[C@@H]3CC[C@]12C | 2.3 | 1.8 µM | 
14 | CC1(C)[C@@H](O)[C@H](O)C[C@]2(C)[C@H]3C[C@@H](O)[C@@H]4[C@@H]([C@@](C)(O)CCCNCc5cccnc5)CC[C@@]4(C)[C@]3(C)CC[C@@H]12 | 2.8 | 1 µM | Activity (HepG2 [5]): Active; inhibition (INH) [6]: 20%; Activity (L6): Active; Activity (HepG2 [7]): Active
15 | CC(C)(O)[C@@H]1CC[C@](C)([C@H]2CC[C@]3(C)[C@@H]2[C@H](O)C[C@@H]2[C@@]4(C)C[C@@H](O)[C@H](O)C(C)(C)[C@@H]4CC[C@]23C)O1 | 3.6 | 8.8 µM | 
16 | CNCCC[C@](C)(O)[C@H]1CC[C@]2(C)[C@@H]1[C@H](O)C[C@@H]1[C@@]3(C)C[C@@H](O)[C@H](O)C(C)(C)[C@@H]3CC[C@]12C | 2.6 | 1.9 µM | 
17 | COc1ccc(CNCCC[C@](C)(O)[C@H]2CC[C@]3(C)[C@@H]2[C@H](O)C[C@@H]2[C@@]4(C)C[C@@H](O)[C@H](O)C(C)(C)[C@@H]4CC[C@]23C)cc1OC | 2.8 | 1.1 µM | 
18 | N#Cc1c(O)c2c(-c3ccc(-c4ccccc4O)cc3)csc2[nH]c1=O | 4.2 | 0.0096 µM | 
19 | CC(C)=CCC[C@](C)(O)[C@H]1CC[C@]2(C)[C@@H]1[C@H](O)C[C@@H]1[C@@]3(C)C[C@@H](O)[C@H](O)C(C)(C)[C@@H]3CC[C@]12C | 2.4 | 5.1 µM | inhibition at 20 µM [1]: 25%; Activity (HepG2 [8]): Active; Activity (Syrian golden hamster [9]): Active; Activity (Syrian golden hamster [10]): Active; Activity (HepG2 [11]): Active; Activity (Syrian golden hamster [12]): Active; Activity (Syrian golden hamster [13]): inactive; Activity (Syrian golden hamster [14]): inactive
20 | Nc1ncnc2c1ncn2[C@@H]1O[C@H](COP(=O)(O)O)[C@@H](O)[C@H]1O [ADENOSINE PHOSPHATE] | 3.2 | 1.6 µM | 
21 | C[C@H](NCCC[C@](C)(O)[C@H]1CC[C@]2(C)[C@@H]1[C@H](O)C[C@@H]1[C@@]3(C)C[C@@H](O)[C@H](O)C(C)(C)[C@@H]3CC[C@]12C)c1ccccc1 | 2.8 | 1.4 µM | 
22 | CCCNCCC[C@](C)(O)[C@H]1CC[C@]2(C)[C@@H]1[C@H](O)C[C@@H]1[C@@]3(C)C[C@@H](O)[C@H](O)C(C)(C)[C@@H]3CC[C@]12C | 2.9 | 1.9 µM | 
